# Experimental data as given in paper PMC6471177 (Pharmaceutics, 2019).
# Assays:
# [1] = Rat plasma protein binding of docetaxel by equilibrium dialysis; type: in vitro ADME; details: LC478 0.1 and 10 μg/mL
# Description: A 1 mL of the plasma was dialyzed against 1 mL of isotonic Sørensen phosphate buffer (pH 7.4) containing 3% dextran (w/v) in a dialysis cell (Spectrum Medical Industries, Laguna Hills, CA, USA) using a Spectra/Por 4 membrane (mol. wt. cutoff 12−14 KDa; Spectrum Medical Industries, USA).
# [2] = tested on: P-gp overexpressing MES-SA/DX5 sarcoma cells; details: cited from earlier work
# [3] = Disappearance of docetaxel in rat intestinal microsomes with LC478; type: in vitro ADME; details: rat intestinal microsomes, LC478 1, 5, 10 µM
# Description: (§1) The hepatic and intestinal microsomes were prepared based on a similar reported method.
# (§2) Adding 0.1 M phosphate buffer (pH 7.4) adjusted the total volume as 0.5 mL, and then the components were incubated at 37 °C using a thermomixer at 500 opm. After incubation of 15 and 30 min for the hepatic and intestinal microsomes, respectively, 1 mL of acetonitrile with 5 µg/mL of paclitaxel as an internal standard added to terminate the reaction.
# (§3) The unweighted kinetic data from rat hepatic and intestinal microsomes were fitted using a single-site Michaelis–Menten Equation V = Vmax × [S]/(Km + [S])(4) where [S] is the substrate concentration, Vmax is maximal velocity, and Km is substrate concentration for half-maximal velocity. The CLint was calculated by dividing the Vmax by the Km.
# [4] = Disappearance of docetaxel in rat hepatic microsomes with LC478; type: in vitro ADME; details: rat hepatic microsomes, LC478 1, 5, 10 µM
# Description: as §1, §2, §3
# [5] = LC478 concentration in intestine after oral administration and [I]/IC50 prediction; type: in vivo; details: our unpublished data
# Description: Concentration of LC478 was determined using a HPLC-UV system. A 50 µL aliquot of acetonitrile was added to a 50 µL aliquot of biological sample. After vortex-mixing and centrifugation, the supernatant was evaporated (Dry Thermo Bath MG-2200, Eyela, Tokyo, Japan) under a soft stream of nitrogen gas at 50 °C. The residue was reconstituted in 60 µL mobile phase and a 50 µL aliquot of the supernatant was loaded onto a reverse-phase C18 column (SunFireTM; 150 mm. ℓ. × 4.6 mm. i.d.; particle size, 5 µm; Waters, Milford, MA, USA). […]. The retention time of LC478 was approximately 7.8 min, and the quantitation limit was 0.1 µg/mL.
# [6] = MTT cell viability assay in Caco-2 cells; type: cell-based; details: human; Caco-2 cells, 0.001 to 100 µM, 24 h, MTT
# Description: (§4) Caco-2 cells were obtained from the Korean Cell Line Bank (Seoul, Korea). The cells were maintained in Dulbecco’s modified Eagle’s medium (DMEM) supplemented with 10% fetal bovine serum, 1% non-essential amino acids, and 100 U/mL penicillin and gentamicin at 37 °C in a humidified 5% CO2 atmosphere.
# (§5) The effect of LC478 on cell viability was assessed by an MTT assay. LC478 was dissolved in diluted in 100% dimethyl sulfoxide (DMSO) and diluted with cell culture media. Caco-2 cells were seeded in 96-well plates at 1 × 10^5 cells/mL. A 100 μL of LC478 in cell culture media was treated on the plates to achieve final concentration of LC478 in the ranges of 0.001 to 100 μM, which was incubated for 24 h. After adding 10 μL/well of MTT ([…]) and incubating them for 24 h, the supernatants of the cultures were removed and replaced with 100 μL of DMSO. The cell viability rate (%) was calculated as the absorbance of treated cells divided by that of control cells. The viability of the control cells was defined as 100%.
# [7] = tested on: Caco-2 cells; test: MTT cell viability assay in Caco-2 cells; type: cell-based; details: even at 100 µM, 24 h incubation
# Description: as §4, §5
# [8] = biological target: T1, P-gp (Homo sapiens, UniProt P08183); test: Intracellular accumulation of docetaxel in Caco-2 cells (P-gp inhibition); type: cell-based
# T1 construct: They were allowed to grow to confluence for 5 days to obtain higher expressions of P-gp; endogenous in cells; host or cells: Caco-2
# T1 sequence (P08183 whole entry): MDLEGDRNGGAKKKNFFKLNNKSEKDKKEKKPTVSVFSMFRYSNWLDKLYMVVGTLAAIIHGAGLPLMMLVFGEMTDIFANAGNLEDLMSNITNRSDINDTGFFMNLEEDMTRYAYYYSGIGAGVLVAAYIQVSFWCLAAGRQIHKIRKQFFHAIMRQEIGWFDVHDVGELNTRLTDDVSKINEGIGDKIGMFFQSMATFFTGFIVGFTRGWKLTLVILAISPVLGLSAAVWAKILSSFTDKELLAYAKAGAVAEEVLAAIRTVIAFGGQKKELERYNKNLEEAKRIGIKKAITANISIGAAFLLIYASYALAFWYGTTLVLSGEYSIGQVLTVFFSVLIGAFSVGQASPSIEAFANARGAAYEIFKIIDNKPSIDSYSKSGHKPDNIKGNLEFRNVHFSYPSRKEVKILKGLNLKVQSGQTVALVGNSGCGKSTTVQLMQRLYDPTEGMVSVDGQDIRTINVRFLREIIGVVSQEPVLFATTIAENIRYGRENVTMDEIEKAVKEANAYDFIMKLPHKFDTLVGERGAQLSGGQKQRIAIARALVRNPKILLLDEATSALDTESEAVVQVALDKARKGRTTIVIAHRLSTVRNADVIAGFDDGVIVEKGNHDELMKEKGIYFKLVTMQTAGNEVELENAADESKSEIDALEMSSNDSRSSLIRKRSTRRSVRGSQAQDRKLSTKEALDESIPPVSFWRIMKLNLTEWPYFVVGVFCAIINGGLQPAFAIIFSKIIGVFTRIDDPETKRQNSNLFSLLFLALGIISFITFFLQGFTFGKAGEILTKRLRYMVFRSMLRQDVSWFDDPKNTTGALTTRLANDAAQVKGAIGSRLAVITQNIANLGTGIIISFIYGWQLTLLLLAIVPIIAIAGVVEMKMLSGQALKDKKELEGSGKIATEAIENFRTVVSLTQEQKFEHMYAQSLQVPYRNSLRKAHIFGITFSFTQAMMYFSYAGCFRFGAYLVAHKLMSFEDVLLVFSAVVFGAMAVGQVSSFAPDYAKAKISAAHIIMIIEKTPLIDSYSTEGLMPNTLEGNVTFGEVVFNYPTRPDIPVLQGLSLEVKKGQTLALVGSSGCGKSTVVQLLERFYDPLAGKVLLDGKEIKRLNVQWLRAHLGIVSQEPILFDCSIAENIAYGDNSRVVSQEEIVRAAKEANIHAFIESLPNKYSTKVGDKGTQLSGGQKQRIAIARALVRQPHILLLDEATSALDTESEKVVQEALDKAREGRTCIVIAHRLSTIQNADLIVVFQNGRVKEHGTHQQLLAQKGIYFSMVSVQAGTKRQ
compound,measurement,setting,value
COC(=O)c1cccc(NC(=O)COc2ccc(C34CC5CC(CC(C(=O)N6CCN(Cc7ccc(C(F)(F)F)cc7)CC6)(C5)C3)C4)cc2)c1 [LC478],effect on protein binding of docetaxel in rat plasma,[1],did not affect
same,effect on P-gp mediated efflux of paclitaxel,[2],reversed P-gp mediated efflux activity
same,intrinsic cytotoxicity,[2],without intrinsic cytotoxicity
same,effect on intestinal metabolism of docetaxel,[3],not inhibited
same,effect on hepatic metabolism of docetaxel,[4],not inhibited
same,LC478 concentration in the intestine,[5]; after oral administration of 30 mg/kg LC478,3.25 to 5.18 µM
same,LC478 concentration in the intestine,[5]; after oral administration of 100 mg/kg LC478,9.37 to 12.3 µM
same,viability at 24 h,[6],97 to 100%
same,toxicity to Caco-2 cells,[7],not toxic
same,IC50,[8],601 nM
